# Assay results published in PubChem BioAssay (NCI).
# Values joined by “and” are separate entries in the source; they are usually repeats but may differ in a detail not shown here. Identical values can stand only once.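 Protocol summary: plate cells (96-well), add compound at 5 concentrations, incubate 48 h, interpolate endpoints linearly. Abbreviation: GI50, concentration required for 50% inhibition of growth. TGI is the concentration that stops growth completely.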
# How the values were obtained:
# Test in all cases: NCI-60 cell line screen, 48 h
# [1] = test system: ACHN renal
# [2] = test system: HOP-62 NSCLC
# [3] = test system: HS 578T breast
# [4] = test system: K-562 leukemia
# [5] = test system: M14 melanoma
# [6] = test system: MDA-MB-231 breast
# [7] = test system: NCI-H23 lung
# [8] = test system: OVCAR-4 ovarian
# [9] = test system: PC-3 prostate
# [10] = test system: SK-MEL-28 melanoma
SMILES,TGI [1],TGI [2],TGI [3],TGI [4],TGI [5],TGI [6],TGI [7],TGI [8],TGI [9],TGI [10],GI50 [1],GI50 [2],GI50 [4],GI50 [5],GI50 [6],GI50 [7],GI50 [8],GI50 [9],GI50 [10],GI50 [3]
Nc1nc(C(=O)O)c(N=Nc2ccccc2)c(=O)[nH]1,> 100 µM,> 100 µM,> 100 µM,> 100 µM,> 100 µM,> 100 µM,> 100 µM,> 100 µM,> 100 µM,> 100 µM,,,,,,,,,,
O=C(Cc1ccccc1)C(c1ccccc1)S(=O)(=O)c1ccccc1 (stereo unspecified),> 100 µM,> 100 µM,,> 100 µM,> 100 µM,,> 100 µM,> 100 µM,,> 100 µM,,,,,,,,,,
CC(N)CC(=O)O (stereo unspecified),> 5000 µM,,,> 5000 µM,> 5000 µM,,> 5000 µM,> 5000 µM,,> 5000 µM,,,,,,,,,,
Nc1nc2ccccc2c2c1S(=O)(=O)c1ccc(Cl)cc1C2=O,> 50 µM,> 50 µM,,> 50 µM,35.4 µM,> 50 µM,> 50 µM,10.8 µM,> 50 µM,14.1 µM,1.38 µM,2.31 µM,1.45 µM,2.45 µM,1.57 µM,2.48 µM,1.46 µM,0.89 µM,2.09 µM,
COc1cc(/C=C/C(=O)O[C@H]2[C@H](O[C@@H]3O[C@@H](C)[C@H](O)[C@@H](O)[C@H]3O)[C@@H](O)[C@H](OCCc3ccc(O)c(O)c3)O[C@@H]2COC2OCC(O)(CO)C2O)ccc1O (stereo partly specified),> 100 µM,> 100 µM,> 100 µM,> 100 µM,> 100 µM,> 100 µM,,> 100 µM,> 100 µM,> 100 µM,> 100 µM,> 100 µM,63.3 µM,> 100 µM,> 100 µM,,> 100 µM,> 100 µM,> 100 µM,67.6 µM
C=CCN(CC=C)C(=O)[C@H](CC)[C@@H]1CC[C@@H](C)[C@@H]([C@H](C)[C@@H](O)[C@@H](C)C(=O)[C@H](CC)C2O[C@]3(C=C[C@@H](O)[C@]4(CC[C@@](C)([C@H]5CC[C@](O)(CC)[C@H](C)O5)O4)O3)[C@H](C)C[C@@H]2C)O1 (stereo partly specified),11 µM,12.2 µM,6.27 µM,11 µM,,3.84 µM,6.93 µM,10.1 µM,12.4 µM,21.6 µM,2.9 µM,3.22 µM,2.64 µM,,1.77 µM,2.48 µM,2.63 µM,2.31 µM,4.45 µM,2.22 µM
O=C(CO)C1CC2C=CC1C2 (stereo unspecified),> 100 µM,> 100 µM,,> 100 µM,> 100 µM,,> 100 µM,> 100 µM,,> 100 µM,,,,,,,,,,
Cc1ccc(Cl)cc1-n1c(C)nc2c(cnn2-c2ccnc3c(C(F)(F)F)cccc23)c1=O,> 100 µM,> 100 µM,> 100 µM,> 100 µM,,> 100 µM,> 100 µM,> 100 µM,> 100 µM,> 100 µM,> 100 µM,> 100 µM,> 100 µM,,> 100 µM,> 100 µM,> 100 µM,> 100 µM,> 100 µM,> 100 µM
CC(=O)CC(=O)CCC(=O)Nc1cccc(C(F)(F)F)c1,> 100 µM,> 100 µM,,> 100 µM,> 100 µM,,> 100 µM,> 100 µM,,,,,,,,,,,,
c1ccc2c(CNCCN3CCNCC3)c3ccccc3c(CNCCN3CCNCC3)c2c1,> 100 µM,36.1 µM,,32.7 µM,60.4 µM,38.6 µM,54.1 µM,> 100 µM,20.3 µM,> 100 µM,31.2 µM,11.9 µM,10.3 µM,22.8 µM,16 µM,16 µM,43.8 µM,5.86 µM,42.8 µM,
O=[N+]([O-])/C=C/c1ccc(Cl)cc1Cl,34.3 µM,28.6 µM,,9.94 µM,24.4 µM,,42.9 µM,34.8 µM,,30.3 µM,,,,,,,,,,
N#CC1C(N)=NNC12Nc1ccccc1S2 (stereo unspecified),53.3 µM,> 100 µM,71.7 µM,34.7 µM,40.5 µM,16.6 µM,22.8 µM,,> 100 µM,,20.1 µM,30.3 µM,14.1 µM,15.3 µM,3.59 µM,5.23 µM,,14.1 µM,,17.4 µM
CSC1=Nc2c(c(C)c(-c3ccccc3)n2COC(CO)CO)C2=NC(=O)CN12,> 100 µM,> 100 µM,> 100 µM,> 100 µM,,> 100 µM,> 100 µM,> 100 µM,> 100 µM,> 100 µM,> 100 µM,98.2 µM,> 100 µM,,> 100 µM,> 100 µM,> 100 µM,> 100 µM,> 100 µM,> 100 µM
Cn1c(C(=O)c2cccc3ccccc23)nc2ccccc21,> 100 µM,> 100 µM,> 100 µM,> 100 µM,,> 100 µM,> 100 µM,> 100 µM,> 100 µM,> 100 µM,> 100 µM,> 100 µM,> 100 µM,,> 100 µM,> 100 µM,35.1 µM,> 100 µM,> 100 µM,> 100 µM
COC(=O)c1cc([N+](=O)[O-])cc([N+](=O)[O-])c1Cl,3.21 µM,8.09 µM,5.86 µM,> 100 µM,,5.79 µM,69.6 µM,3.17 µM,3.91 µM,4.08 µM,1.76 µM,2.65 µM,2.24 µM,,2.34 µM,19.3 µM,1.76 µM,1.88 µM,1.94 µM,2.28 µM
CCOC(=O)C(CCCNC(=O)OC(C)(C)C)N(Cc1ccc(OC)cc1OC)C(=O)CC(=O)CP(=O)(OCC)OCC (stereo unspecified),> 100 µM,> 100 µM,,> 100 µM,> 100 µM,,> 100 µM,> 100 µM,,> 100 µM,,,,,,,,,,
O=C(c1c(O)cc(O)cc1O)C1Cc2ccccc21 (stereo unspecified),> 100 µM,> 100 µM,,> 100 µM,> 100 µM,,,> 100 µM,,,,,,,,,,,,

SMILES,TGI [1],TGI [2],TGI [3],TGI [4],TGI [5],TGI [6],TGI [7],TGI [8],TGI [9],TGI [10],GI50 [1],GI50 [2],GI50 [4],GI50 [5],GI50 [6],GI50 [7],GI50 [8],GI50 [9],GI50 [10],GI50 [3]
COc1c(OC(C)C)cc2cc(O)c(C(=O)NC3Cc4ccc(c(Cl)n4)O[C@@H]4C=C5C#C/C(=C\C#CC6OC56C4OC4CC(C)(O)C(O)C(C)O4)C(OC4CC(O)C(N(C)C)C(C)O4)COC3=O)cc2c1OC (stereo partly specified),> 36.3 µM and 5.69 µg/mL,> 36.3 µM and 1.74 µg/mL,> 36.3 µM,> 36.3 µM and 37.5 µg/mL,> 36.3 µM and 21.4 µg/mL,,> 36.3 µM and 1.79 µg/mL,> 36.3 µM and 37.5 µg/mL,> 36.3 µM,> 36.3 µM and 37.5 µg/mL,9.33 µM and 0.303 µg/mL,10.3 µM and 0.402 µg/mL,> 36.3 µM and 0.823 µg/mL,32.7 µM and 2.8 µg/mL,,6.32 µM and 0.296 µg/mL,> 36.3 µM and 30.8 µg/mL,,3.16 mg/L,
CC(=O)[CH-]C(C)=O.CC(=O)[CH-]C(C)=O.CC(=O)[CH-]C(C)=O.[Ga+3],> 100 µM,,,,> 100 µM,,> 100 µM,> 100 µM,,> 100 µM,> 100 µM,,,> 100 µM,,> 100 µM,> 100 µM,,> 100 µM,
COc1ccc2nc3cc(Cl)ccc3c(N3CCN(c4ccnc(N5CCN(C)CC5)n4)CC3)c2c1,3.33 µM,12.4 µM,8.29 µM,,4.06 µM,,4.17 µM,3.02 µM,3.87 µM,3.29 µM,1.75 µM,3.51 µM,,2.04 µM,,2.02 µM,1.61 µM,1.92 µM,1.73 µM,2.7 µM
CC1CCN(CCOc2ccc(CNc3ccc4nc(CCC5CCCCC5)[nH]c4c3)cc2)CC1,3.22 µM,3.21 µM,4.06 µM,2.44 µM,3.01 µM,2.94 µM,3.98 µM,8.18 µM,2.93 µM,,1.76 µM,1.68 µM,0.594 µM,1.56 µM,1.53 µM,1.89 µM,2.62 µM,1.44 µM,,1.67 µM
O=C1C(Nc2cccc(O)c2)=C(Sc2ccccc2)C(=O)N1Cc1ccccc1,31.6 µM,28.8 µM,43.8 µM,17.1 µM,19.5 µM,,27.8 µM,49.6 µM,14.3 µM,26.1 µM,12.6 µM,14.8 µM,3.71 µM,5.35 µM,,11.4 µM,5.33 µM,2.15 µM,11.8 µM,11.5 µM
CC1CCC2(C)C(CC=C(C=O)C2(O)C=O)C12CO2 (stereo unspecified),3.93 µM,40.3 µM,,4.67 µM,6.29 µM,,5.83 µM,5.2 µM,,3.97 µM,,,,,,,,,,
N#CNC1=NC(N)C(c2nc3ccccc3[nH]2)=C(CCCC(=O)Nc2cccc([N+](=O)[O-])c2)N1 (stereo unspecified),> 100 µM,> 100 µM,,> 100 µM,> 100 µM,,> 100 µM,> 100 µM,,> 100 µM,,,,,,,,,,
C=CC[N+]1(CC)CCN=C1CCCCCCCCCCCCCCCCC (stereo unspecified),2.52 µM,1.75 µM,1.57 µM,,1.28 µM,2.19 µM,0.589 µM,,0.702 µM,2.04 µM,1.19 µM,0.53 µM,,0.35 µM,0.763 µM,0.119 µM,,0.237 µM,0.816 µM,0.432 µM
CC(C)OC(=O)C1Cc2c([nH]c3ccccc23)C(c2ccccc2)N1 (stereo unspecified),> 100 µM,69.9 µM,,> 100 µM,> 100 µM,,> 100 µM,> 100 µM,,> 100 µM,,,,,,,,,,
CCOC(=O)C(Cc1ccc(N(CCCl)CCCl)cc1)NC(=O)C(Cc1ccccc1)NC(C)=O (stereo unspecified),0.309 µM,> 0.431 µM,> 1 µM,> 0.502 µM,> 0.318 µM,> 0.366 µM,> 0.304 µM,0.0353 µM,> 0.374 µM,,,,,,,,,,,
COc1ccc(/C=N\Nc2nc(SCC(C)C)nc(-c3ccc(OC)cc3)c2C#N)cc1,2.37 µM,10.8 µM,30.9 µM,> 100 µM,92.2 µM,25 µM,31.7 µM,1.83 µM,,> 100 µM,0.71 µM,0.414 µM,19.1 µM,13 µM,6.66 µM,12.2 µM,0.417 µM,,30.8 µM,3.98 µM
C=CC(=O)N[C@@H](/C=C/C(=O)OCC)Cc1ccc(-c2cc(Cl)cc(Cl)c2)cc1,> 100 µM,,78.4 µM,> 100 µM,80.6 µM,48.8 µM,> 100 µM,74.4 µM,,79.8 µM,16.1 µM,,15.7 µM,17 µM,12.8 µM,11.8 µM,5.23 µM,,18.1 µM,16.3 µM
O=C(c1ccco1)c1c(C(F)(F)F)n([O-])c2cc(F)c(F)cc2[n+]1=O,0.256 µM,0.85 µM,2.63 µM,8.34 µM,0.528 µM,0.313 µM,1.86 µM,,0.435 µM,2.58 µM,0.122 µM,0.348 µM,0.079 µM,0.225 µM,0.14 µM,0.497 µM,,0.147 µM,0.416 µM,0.655 µM
C[P+]1(c2ccccc2)CCCCC1,> 100 µM,> 100 µM,,> 100 µM,> 100 µM,,> 100 µM,> 100 µM,,> 100 µM,,,,,,,,,,
C=C1C=CC2(Br)OC3CC(C)(Cl)C(Br)CC13C2(C)C (stereo unspecified),56.2 µM,48 µM,,36.8 µM,53.2 µM,,39.2 µM,> 100 µM,,54.4 µM,,,,,,,,,,
Cn1nc(-c2ccccc2)c(C(=O)/C=C/c2ccc(Cl)cc2)c(N2CCOCC2)c1=O,17 µM,33.7 µM,,9.41 µM,15.7 µM,,8.25 µM,,,7.64 µM,,,,,,,,,,
